From US11845751B2, “Triazolotriazine derivatives as A2A receptor antagonists” (ZHEJIANG VIMGREEN PHARMACEUTICALS, LTD., priority 2018, dated 2023)

Molecular target: T1, A2AR (hADORA2A-HEK293 cells) (Homo sapiens, UniProt P29274)
T1 construct: expressed in transfected cells; host or cells: HEK293 (hADORA2A-HEK293)
Assay: functional cAMP production assay: NECA stimulation of cAMP production and its inhibition by A2AR antagonists
Type: cell-based
Settings: not given
Procedure: The antagonistic activities of the triazolotriazine derivatives of the present invention were measured in a functional cAMP production assay. The assay consists of NECA stimulation of cAMP production and its inhibition by A2AR antagonists in A2AR-expressing HEK293 cells (hADORA2A-HEK293). All cells were cultured in complete medium at 37° C. in 5% CO2. The cells were detached with pancreatin and collected at 200 g for 5 min. After resuspending the cells in fresh complete medium, the cell viability is counted using the trypan blue exclusion method. […] After the cells were diluted with Hank's buffered saline solution containing HEPES (5 mM), BSA stabilizer (0.1%) and […] Rolipram (10 μM), cells were loaded into white opaque 384-well plates (˜500 cells/well, 10 μl/well) and incubated with test compound at a suitable concentration range (11 concentrations) for 20 min at room temperature. Then the A2A receptor agonist NECA (final concentration=EC80, which was determined in the same experiment slightly earlier) was added to the sample and the mixture was incubated again for 30 min at 37° C. […] The inhibition rate (%) was calculated according to the following formula. The IC50 values were calculated from concentration-inhibition (%) curves after log transformation.

T1 sequence (P29274 whole entry): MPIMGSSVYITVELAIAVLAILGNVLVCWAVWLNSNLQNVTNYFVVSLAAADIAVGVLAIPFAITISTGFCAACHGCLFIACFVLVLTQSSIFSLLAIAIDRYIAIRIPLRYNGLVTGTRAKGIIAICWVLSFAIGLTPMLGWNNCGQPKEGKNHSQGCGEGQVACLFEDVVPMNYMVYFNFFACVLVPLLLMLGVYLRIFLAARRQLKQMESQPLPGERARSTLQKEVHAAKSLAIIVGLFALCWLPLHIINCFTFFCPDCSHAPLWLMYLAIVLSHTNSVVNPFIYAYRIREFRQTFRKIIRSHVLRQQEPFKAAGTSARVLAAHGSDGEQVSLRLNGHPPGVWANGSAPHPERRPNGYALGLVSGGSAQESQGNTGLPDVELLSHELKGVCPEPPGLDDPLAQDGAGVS

| Structure (SMILES) | IC50 [nM] |
| --- | --- |
| Nc1nc(NCCc2ccc(OCCN3CC3)cc2)nc2nc(-c3ccco3)nn12 [Example 124, N5-(4-(2-(Aziridin-1-yl)ethoxy)phenethyl)-2-(furan-2-yl)-[1,2,4]triazolo[1,5-a][1,3,5]triazine-5,7-diamine] | 8.4 |

Same assay, conditions: A2AR-expressing HEK293 cells (hADORA2A-HEK293); NECA at EC80; TR-FRET cAMP readout; read-out: A2AR Potency (IC50, inhibition of NECA-stimulated cAMP production)

| IC50 [nM] | Structure (SMILES) |
| --- | --- |
| 43.2 | Nc1nc(NCCc2ccc(OCC3CCN(Cc4cccnc4)C3)cc2)nc2nc(-c3ccco3)nn12 (stereo in doubt) [Example 283, (S)-2-(Furan-2-yl)-N5-(4-((1-(pyridin-3-ylmethyl)pyrrolidin-3-yl)methoxy)phenethyl)-[1,2,4]triazolo[1,5-a][1,3,5]triazine-5,7-diamine] |
| 18 | CN(C)CCOc1ccc(CCNc2nc(N)n3nc(-c4ccco4)nc3n2)cc1 [Example 13, N5-(4-(2-(Dimethylamino)ethoxy)phenethyl)-2-(furan-2-yl)-[1,2,4]triazolo[1,5-α][1,3,5]-triazine-5,7-diamine] |
| 24 | Nc1nc(NCCc2ccc(OCCN3CCCC3)cc2)nc2nc(-c3ccco3)nn12 [Example 16, 2-(Furan-2-yl)-N5-(4-(2-(pyrrolidin-1-yl)ethoxy)phenethyl)-[1,2,4]triazolo[1,5-α][1,3,5]-triazine-5,7-diamine] |
| 29 | Nc1nc(NCCc2ccc(OCCCN3CCCC3)cc2)nc2nc(-c3ccco3)nn12 [Example 19, 2-(Furan-2-yl)-N5-(4-(3-(pyrrolidin-1-yl)propoxy)phenethyl)-[1,2,4]triazolo[1,5-α][1,3,5]-triazine-5,7-diamine] |
| 8 | Nc1nc(NCCc2ccc(OCc3ccccn3)cc2)nc2nc(-c3ccco3)nn12 [Example 26, 2-(Furan-2-yl)-N5-(4-(pyridin-2-ylmethoxy)phenethyl)-[1,2,4]triazolo[1,5-α][1,3,5]triazine-5,7-diamine] |
| 7 | Nc1nc(NCCc2ccc(OCc3ccncc3)cc2)nc2nc(-c3ccco3)nn12 [Example 29, 2-(Furan-2-yl)-N5-(4-(pyridin-4-ylmethoxy)phenethyl)-[1,2,4]triazolo[1,5-α][1,3,5]triazine-5,7-diamine] |
| 8 | Nc1nc(NCCc2ccc(OCc3cccnc3)cc2)nc2nc(-c3ccco3)nn12 [Example 32, 2-(Furan-2-yl)-N5-(4-(pyridin-3-ylmethoxy)phenethyl)-[1,2,4]triazolo[1,5-α][1,3,5]triazine-5,7-diamine] |
| 11 | Nc1nc(NCCc2ccc(OCCCc3ccncc3)cc2)nc2nc(-c3ccco3)nn12 [Example 36, 2-(Furan-2-yl)-N5-(4-(3-(pyridin-4-yl)propoxy)phenethyl)-[1,2,4]triazolo[1,5-α][1,3,5]-triazine-5,7-diamine] |
| 11 | Nc1nc(NCCc2ccc(OCCCc3cccnc3)cc2)nc2nc(-c3ccco3)nn12 [Example 40, 2-(Furan-2-yl)-N5-(4-(3-(pyridin-3-yl)propoxy)phenethyl)-[1,2,4]triazolo[1,5-α][1,3,5]-triazine-5,7-diamine] |
| 129 | Nc1nc(NCCc2c[nH]cn2)nc2nc(-c3ccco3)nn12 [Example 42, N5-(2-(1H-Imidazol-4-yl)ethyl)-2-(furan-2-yl)-[1,2,4]triazolo[1,5-α][1,3,5]triazine-5,7-diamine] |
| 63.8 | Nc1nc(NCCc2ccncn2)nc2nc(-c3ccco3)nn12 [Example 44, 2-(Furan-2-yl)-N5-(2-(pyrimidin-4-yl)ethyl)-[1,2,4]triazolo[1,5-α][1,3,5]triazine-5,7-diamine] |
| 25.4 | Nc1nc(NCCc2ccc(OCCN3CCCCCC3)cc2)nc2nc(-c3ccco3)nn12 [Example 51, N5-(4-(2-(Azepan-1-yl)ethoxy)phenethyl)-2-(furan-2-yl)-[1,2,4]triazolo[1,5-α][1,3,5]triazine-5,7-diamine] |
| 19.2 | Nc1nc(NCCc2ccc(OCCCN3CCCCC3)cc2)nc2nc(-c3ccco3)nn12 [Example 54, 2-(Furan-2-yl)-N5-(4-(3-(piperidin-1-yl)propoxy)phenethyl)-[1,2,4]triazolo[1,5-α][1,3,5]-triazine-5,7-diamine] |
| 7 | COCCOc1ccc(CCNc2nc(N)n3nc(-c4ccco4)nc3n2)cc1 [Example 57, 2-(Furan-2-yl)-N5-(4-(2-methoxyethoxy)phenethyl)-[1,2,4]triazolo[1,5-α][1,3,5]triazine-5,7-diamine] |
| 10 | COCCOCCOc1ccc(CCNc2nc(N)n3nc(-c4ccco4)nc3n2)cc1 [Example 60, 2-(Furan-2-yl)-N5-(4-(2-(2-methoxyethoxy)ethoxy)phenethyl)-[1,2,4]triazolo[1,5-α][1,3,5]triazine-5,7-diamine] |
| 21.5 | COCCOCCOCCOc1ccc(CCNc2nc(N)n3nc(-c4ccco4)nc3n2)cc1 [Example 65, 2-(Furan-2-yl)-N5-(4-(2-(2-(2-methoxyethoxy)ethoxy)ethoxy)phenethyl)-[1,2,4]triazolo[1,5-α][1,3,5]triazine-5,7-diamine] |
| 19 | COCCOCCOCCOCCOc1ccc(CCNc2nc(N)n3nc(-c4ccco4)nc3n2)cc1 [Example 70, N5-(4-(2,5,8,11-Tetraoxatridecan-13-yloxy)phenethyl)-2-(furan-2-yl)-[1,2,4]triazolo[1,5-α][1,3,5]triazine-5,7-diamine] |
| 32.3 | COCCOCCOCCOCCOCCOc1ccc(CCNc2nc(N)n3nc(-c4ccco4)nc3n2)cc1 [Example 74, N5-(4-(2,5,8,11,14-Pentaoxahexadecan-16-yloxy)phenethyl)-2-(furan-2-yl)-[1,2,4]triazolo[1,5-α][1,3,5]triazine-5,7-diamine] |
| 31.3 | COCCOCCOCCOCCOCCOCCOc1ccc(CCNc2nc(N)n3nc(-c4ccco4)nc3n2)cc1 [Example 78, N5-(4-(2,5,8,11,14,17-Hexaoxanonadecan-19-yloxy)phenethyl)-2-(furan-2-yl)-[1,2,4]triazolo[1,5-α][1,3,5]triazine-5,7-diamine] |
| 9 | Nc1nc(NCCc2ccc(OCCN3CCOCC3)cc2)nc2nc(-c3ccco3)nn12 [Example 82, 2-(Furan-2-yl)-N5-(4-(2-morpholinoethoxy)phenethyl)-[1,2,4]triazolo[1,5-α][1,3,5]triazine-5,7-diamine] |
| 14.3 | Nc1nc(NCCc2ccc(OCCCN3CCOCC3)cc2)nc2nc(-c3ccco3)nn12 [Example 86, 2-(Furan-2-yl)-N5-(4-(3-morpholinopropoxy)phenethyl)-[1,2,4]triazolo[1,5-α][1,3,5]triazine-5,7-diamine] |
| 10.9 | Nc1nc(NCCc2ccc(OCCc3ccccn3)cc2)nc2nc(-c3ccco3)nn12 [Example 90, 2-(Furan-2-yl)-N5-(4-(2-(pyridin-2-yl)ethoxy)phenethyl)-[1,2,4]triazolo[1,5-α][1,3,5]triazine-5,7-diamine] |
| 16 | Nc1nc(NCCc2ccc(OCCOCCN3CCOCC3)cc2)nc2nc(-c3ccco3)nn12 [Example 94, 2-(Furan-2-yl)-N5-(4-(2-(2-morpholinoethoxy)ethoxy)phenethyl)-[1,2,4]triazolo[1,5-α][1,3,5]triazine-5,7-diamine] |
| 48.5 | Nc1nc(NCCc2ccc(OCCN3CCC3)cc2)nc2nc(-c3ccco3)nn12 [Example 98, N5-(4-(2-(Azetidin-1-yl)ethoxy)phenethyl)-2-(furan-2-yl)-[1,2,4]triazolo[1,5-α][1,3,5]triazine-5,7-diamine] |
| 19 | COCCOCCOCCOCCOCCOCCOCCOc1ccc(CCNc2nc(N)n3nc(-c4ccco4)nc3n2)cc1 [Example 102, N5-(4-(2-(2-(2-(2-(2-(2-(2-Methoxyethoxy)ethoxy)ethoxy)ethoxy)ethoxy)ethoxy)ethoxy)-phenethyl)-2-(furan-2-yl)-[1,2,4]triazolo[1,5-a][1,3,5]triazine-5,7-diamine] |
| 55 | COCCOCCOCCOCCOCCOCCOCCOCCOc1ccc(CCNc2nc(N)n3nc(-c4ccco4)nc3n2)cc1 [Example 109, N5-(4-(2-(2-(2-(2-(2-(2-(2-(2-Methoxyethoxy)ethoxy)ethoxy)ethoxy)ethoxy)ethoxy)ethoxy)-ethoxy)phenethyl)-2-(furan-2-yl)-[1,2,4]triazolo[1,5-a][1,3,5]triazine-5,7-diamine] |
| 15 | CN(C)CCCOc1ccc(CCNc2cc(N)n3nc(-c4ccco4)nc3c2)cc1 [Example 113, N^7-(4-(3-(Dimethylamino)propoxy)phenethyl)-2-(furan-2-yl)-[1,2,4]triazolo[1,5-a]pyridine-5,7-diamine] |
| 38 | COCCOCCOCCOCCOCCOCCOCCOCCOCCOc1ccc(CCNc2nc(N)n3nc(-c4ccco4)nc3n2)cc1 [Example 117, N5-(4-(2-(2-(2-(2-(2-(2-(2-(2-(2-Methoxyethoxy)ethoxy)ethoxy)ethoxy)ethoxy)ethoxy)-ethoxy)ethoxy)ethoxy)phenethyl)-2-(furan-2-yl)-[1,2,4]triazolo[1,5-a][1,3,5]triazine-5,7-diamine] |
| 14.1 | CN1CCC(COc2ccc(CCNc3nc(N)n4nc(-c5ccco5)nc4n3)cc2)CC1 [Example 121, N5-(4-((1-Methylpiperidin-4-yl)methoxy)phenethyl)-2-(furan-2-yl)-[1,2,4]triazolo[1,5-a][1,3,5]triazine-5,7-diamine] |
| 8.09 | Nc1nc(NCCc2ccc(OCCF)cc2)nc2nc(-c3ccco3)nn12 [Example 142, N5-(4-(2-Fluoroethoxy)phenethyl)-2-(furan-2-yl)-[1,2,4]triazolo[1,5-a][1,3,5]triazine-5,7-diamine] |
